In ChEMBL document CHEMBL1201862, “PubChem BioAssay data set” (2004):
Activity calls are given as the source filed them.

Assays:
[1] = Luminescence Cell-Based Dose Response HTS to Identify Activators of Luciferase Translation or Activity in H4 […] Cells. [Related pubchem assays: 1829 (Project Summary), 1814 (Primary HTS)]; type: functional
[2] = Luminescence Cell-Based Dose Confirmation HTS to Identify Activators of 5'UTR Stem-Loop Driven Alpha-Synuclein mRNA Translation in H4 Neuroglioblastoma Cells. [Related pubchem assays: 1829 (Project Summary), 1814 (Primary HTS)]; type: functional
H4 = experiment: Luminescence Cell-Based Dose Response HTS to Identify Activators of 5'UTR Stem-Loop Driven Prion Protein mRNA Translation in H4 Neuroglioblastoma Cells. [Related pubchem assays: 1829 (Project Summary), 1814 (Primary HTS)]; type: functional; details: Homo sapiens
[3] = target: T1, Polyadenylate-binding protein 1 (Homo sapiens, UniProt P11940); experiment: MLLE domain peptide-binding blockers, IC50 – biochemical, fluorescence polarization, FITC-PAM2 peptide, dose response (AID 602259); type: functional; details: read-out: IC50_Mean
[4] = target: T1, Polyadenylate-binding protein 1; experiment: MLLE binding blockers, Cy5 peptide tracer – biochemical, fluorescence polarization, Cy5-PAM2 peptide, secondary, miRNA deadenylation inhibitor project, dose response (AID 602260); type: functional; details: read-out: IC50_Mean
Fatty acid synthase [5] = target: T2, Fatty acid synthase (Homo sapiens, UniProt P49327); experiment: inhibition of human FAS-TE enzyme activity – biochemical, kinetic fluorescence intensity, dose response (AID 624326); type: functional;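 also: rate of fluorescence rise from hydrolysis of a fluorogenic O-methyl fluorescein ester substrate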
Fatty acid synthase [6] = target: T2, Fatty acid synthase; experiment: inhibition of human FAS-TE enzyme activity – biochemical, endpoint fluorescence intensity, uHTS hits, dose response (AID 624327); type: functional;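 also: fluorescence from hydrolysis of an O-methyl fluorescein acyl ester substrate by the enzyme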
H9c2 = experiment: cells; type: functional, cell-based; details: Rattus norvegicus, H9c2, Myocardium
Streptokinase A = target: T3, Streptokinase A (Streptococcus pyogenes serotype M1, UniProt P10520); experiment: viability-normalized secreted streptokinase activity reduction – plasminogen activation absorbance, OD405, dose response (AID 1914); type: functional, Streptococcus pyogenes M1 GAS;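 also: secreted streptokinase activity via plasminogen activation per viability signal from cell pellet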
T3 sequence (P10520 whole entry): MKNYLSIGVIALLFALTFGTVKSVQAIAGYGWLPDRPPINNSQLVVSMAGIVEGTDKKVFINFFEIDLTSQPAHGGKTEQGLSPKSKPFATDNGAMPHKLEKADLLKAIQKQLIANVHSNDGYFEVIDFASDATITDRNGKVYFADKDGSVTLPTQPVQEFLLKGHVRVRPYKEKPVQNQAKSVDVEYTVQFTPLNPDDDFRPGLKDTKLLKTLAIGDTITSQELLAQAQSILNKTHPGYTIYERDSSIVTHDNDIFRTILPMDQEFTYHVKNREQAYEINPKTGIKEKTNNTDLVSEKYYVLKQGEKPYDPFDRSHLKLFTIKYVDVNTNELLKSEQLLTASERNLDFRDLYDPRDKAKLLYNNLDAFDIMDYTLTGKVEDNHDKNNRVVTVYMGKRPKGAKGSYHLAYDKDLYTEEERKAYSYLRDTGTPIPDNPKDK

[7] = tested on: Streptococcus sp. 'group A'; experiment: Streptococcus pyogenes SK(-)GAS viability under kanamycin – luminescence, BacTiterGlo, confirmation, counter-screen for streptokinase expression inhibitor project, dose response (AID 1900); type: functional, organism-based
Streptococcus = experiment: GAS UMAA2166 growth inhibition – luminescence, BacTiterGlo, counter-screen for streptokinase expression inhibitor project, dose response (AID 1915); type: functional, organism-based;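 also: potency for reduction of bacterial viability or growth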
Cytochrome P450 2C19 = Cytochrome P450 2C19 (Homo sapiens, UniProt P33261); experiment: Cytochrome panel assay with activity outcomes. Panel member name: p450-cyp2c19 Compounds with AC50 equal or less than 10 uM are considered active; type: functional; details: read-out: AC50
Cytochrome P450 1A2 = target: T4, Cytochrome P450 1A2 (Homo sapiens, UniProt P05177);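 also: PubChem cytochrome P450 panel assay, CYP1A2 panel member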
T4 sequence (P05177 whole entry): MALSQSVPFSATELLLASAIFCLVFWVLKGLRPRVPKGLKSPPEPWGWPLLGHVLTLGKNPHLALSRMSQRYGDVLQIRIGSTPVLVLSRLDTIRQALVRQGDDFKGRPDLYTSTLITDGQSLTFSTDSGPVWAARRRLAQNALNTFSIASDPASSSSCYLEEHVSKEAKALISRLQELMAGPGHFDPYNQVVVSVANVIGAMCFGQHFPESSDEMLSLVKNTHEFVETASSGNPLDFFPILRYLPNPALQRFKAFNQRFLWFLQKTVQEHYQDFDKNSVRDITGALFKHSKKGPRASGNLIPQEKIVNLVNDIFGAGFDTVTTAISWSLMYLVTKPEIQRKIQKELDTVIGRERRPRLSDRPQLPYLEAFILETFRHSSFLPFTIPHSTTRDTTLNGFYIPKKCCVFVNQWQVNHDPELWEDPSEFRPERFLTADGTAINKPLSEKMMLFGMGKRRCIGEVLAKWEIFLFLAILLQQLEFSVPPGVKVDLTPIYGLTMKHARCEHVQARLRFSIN

T1 sequence (P11940 whole entry, the tested form may be a part): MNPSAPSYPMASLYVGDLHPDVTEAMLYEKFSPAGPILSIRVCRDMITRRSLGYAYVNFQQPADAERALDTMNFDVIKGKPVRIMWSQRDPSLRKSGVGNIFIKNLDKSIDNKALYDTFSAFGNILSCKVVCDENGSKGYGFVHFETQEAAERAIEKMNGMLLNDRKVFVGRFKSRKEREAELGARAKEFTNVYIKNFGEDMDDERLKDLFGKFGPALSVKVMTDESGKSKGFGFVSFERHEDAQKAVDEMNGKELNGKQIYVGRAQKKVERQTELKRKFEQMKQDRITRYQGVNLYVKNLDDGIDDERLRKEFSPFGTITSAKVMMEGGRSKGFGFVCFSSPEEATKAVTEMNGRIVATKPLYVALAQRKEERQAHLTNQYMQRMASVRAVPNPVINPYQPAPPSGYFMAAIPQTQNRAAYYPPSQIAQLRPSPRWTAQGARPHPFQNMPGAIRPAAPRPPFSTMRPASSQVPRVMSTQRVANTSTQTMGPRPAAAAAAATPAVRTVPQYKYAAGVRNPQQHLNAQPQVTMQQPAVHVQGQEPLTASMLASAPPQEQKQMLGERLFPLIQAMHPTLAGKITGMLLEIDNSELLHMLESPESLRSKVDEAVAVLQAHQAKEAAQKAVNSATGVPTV
T2 sequence (P49327 whole entry): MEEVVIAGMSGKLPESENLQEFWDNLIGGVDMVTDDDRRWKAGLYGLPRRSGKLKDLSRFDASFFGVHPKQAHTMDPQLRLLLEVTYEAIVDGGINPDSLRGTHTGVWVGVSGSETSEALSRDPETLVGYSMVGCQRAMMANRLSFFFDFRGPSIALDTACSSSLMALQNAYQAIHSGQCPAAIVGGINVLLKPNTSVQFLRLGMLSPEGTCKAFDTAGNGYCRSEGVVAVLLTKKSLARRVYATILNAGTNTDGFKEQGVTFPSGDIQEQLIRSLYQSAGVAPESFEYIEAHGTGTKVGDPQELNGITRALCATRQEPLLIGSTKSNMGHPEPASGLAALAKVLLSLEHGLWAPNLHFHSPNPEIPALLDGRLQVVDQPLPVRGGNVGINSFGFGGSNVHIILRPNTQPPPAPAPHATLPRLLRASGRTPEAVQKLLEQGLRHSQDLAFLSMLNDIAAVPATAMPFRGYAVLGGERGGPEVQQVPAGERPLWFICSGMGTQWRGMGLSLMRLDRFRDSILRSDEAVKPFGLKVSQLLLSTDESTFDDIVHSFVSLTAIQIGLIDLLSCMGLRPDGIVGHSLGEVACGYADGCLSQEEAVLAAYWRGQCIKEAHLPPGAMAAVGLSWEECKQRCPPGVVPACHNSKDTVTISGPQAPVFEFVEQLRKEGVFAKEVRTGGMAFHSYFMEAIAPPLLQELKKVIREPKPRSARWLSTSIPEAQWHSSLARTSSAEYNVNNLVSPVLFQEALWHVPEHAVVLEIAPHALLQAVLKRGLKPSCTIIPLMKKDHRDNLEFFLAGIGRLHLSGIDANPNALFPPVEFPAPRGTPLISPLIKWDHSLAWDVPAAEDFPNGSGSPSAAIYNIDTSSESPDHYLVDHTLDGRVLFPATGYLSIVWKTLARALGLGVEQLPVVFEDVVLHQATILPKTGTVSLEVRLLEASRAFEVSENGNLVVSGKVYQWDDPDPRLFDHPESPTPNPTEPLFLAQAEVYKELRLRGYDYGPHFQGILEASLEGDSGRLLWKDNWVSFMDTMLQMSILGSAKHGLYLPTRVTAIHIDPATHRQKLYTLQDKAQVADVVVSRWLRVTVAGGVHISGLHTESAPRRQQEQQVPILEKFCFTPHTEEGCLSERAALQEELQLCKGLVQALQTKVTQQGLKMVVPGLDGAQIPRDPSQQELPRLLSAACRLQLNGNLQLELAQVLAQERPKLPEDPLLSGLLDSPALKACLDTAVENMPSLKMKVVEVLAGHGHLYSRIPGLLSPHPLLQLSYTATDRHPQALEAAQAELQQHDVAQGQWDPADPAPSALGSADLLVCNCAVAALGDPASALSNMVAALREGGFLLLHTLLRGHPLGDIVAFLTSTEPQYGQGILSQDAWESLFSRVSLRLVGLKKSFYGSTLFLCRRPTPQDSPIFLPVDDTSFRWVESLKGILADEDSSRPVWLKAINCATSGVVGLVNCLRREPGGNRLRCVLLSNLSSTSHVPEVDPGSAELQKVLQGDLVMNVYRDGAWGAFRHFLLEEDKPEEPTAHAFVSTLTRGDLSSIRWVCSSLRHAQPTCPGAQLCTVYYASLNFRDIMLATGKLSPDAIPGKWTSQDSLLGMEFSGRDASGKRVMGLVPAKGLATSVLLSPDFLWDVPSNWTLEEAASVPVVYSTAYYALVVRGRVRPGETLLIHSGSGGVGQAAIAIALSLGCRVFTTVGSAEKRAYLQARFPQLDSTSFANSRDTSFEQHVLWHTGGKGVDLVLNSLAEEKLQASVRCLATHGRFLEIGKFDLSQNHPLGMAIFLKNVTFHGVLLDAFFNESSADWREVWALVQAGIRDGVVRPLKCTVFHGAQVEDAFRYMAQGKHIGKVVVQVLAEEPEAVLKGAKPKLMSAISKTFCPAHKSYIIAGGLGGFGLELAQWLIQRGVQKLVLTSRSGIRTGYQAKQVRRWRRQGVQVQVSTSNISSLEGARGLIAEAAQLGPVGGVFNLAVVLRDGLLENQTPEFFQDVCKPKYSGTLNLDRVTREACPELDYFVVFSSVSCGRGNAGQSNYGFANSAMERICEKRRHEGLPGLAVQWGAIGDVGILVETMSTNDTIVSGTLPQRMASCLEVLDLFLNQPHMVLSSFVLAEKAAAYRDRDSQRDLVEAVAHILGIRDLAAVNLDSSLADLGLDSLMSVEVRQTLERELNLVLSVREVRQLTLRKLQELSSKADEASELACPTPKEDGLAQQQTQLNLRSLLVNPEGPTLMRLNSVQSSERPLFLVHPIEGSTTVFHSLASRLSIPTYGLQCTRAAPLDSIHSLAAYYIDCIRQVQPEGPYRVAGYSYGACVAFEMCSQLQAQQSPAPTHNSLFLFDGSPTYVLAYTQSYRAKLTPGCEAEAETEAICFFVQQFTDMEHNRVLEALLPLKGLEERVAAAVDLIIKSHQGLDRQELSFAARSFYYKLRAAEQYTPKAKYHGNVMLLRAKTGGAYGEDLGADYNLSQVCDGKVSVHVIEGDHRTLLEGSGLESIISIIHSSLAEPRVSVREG
Sequence of Cytochrome P450 2C19 (P33261 whole entry): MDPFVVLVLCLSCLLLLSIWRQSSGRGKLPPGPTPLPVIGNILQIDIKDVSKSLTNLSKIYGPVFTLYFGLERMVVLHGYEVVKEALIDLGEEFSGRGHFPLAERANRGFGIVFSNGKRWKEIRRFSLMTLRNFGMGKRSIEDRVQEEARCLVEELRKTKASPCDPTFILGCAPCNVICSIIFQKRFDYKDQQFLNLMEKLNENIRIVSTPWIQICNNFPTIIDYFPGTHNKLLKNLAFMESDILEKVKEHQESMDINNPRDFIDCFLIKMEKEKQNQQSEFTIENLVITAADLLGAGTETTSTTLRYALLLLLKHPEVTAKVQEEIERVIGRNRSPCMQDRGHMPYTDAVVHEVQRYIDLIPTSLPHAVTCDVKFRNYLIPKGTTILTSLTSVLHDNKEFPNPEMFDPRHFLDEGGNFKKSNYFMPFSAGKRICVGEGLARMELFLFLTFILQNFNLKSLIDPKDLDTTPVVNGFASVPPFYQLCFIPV

## CCOC(=O)C1=C(CSc2nc(-c3ccccc3)ccc2C#N)OC(N)=C(C#N)C1c1ccc(OC)cc1 (stereo not drawn)
[1]
  EC50: 16.8 µM (active)
[2]
  EC50: 12.3 µM (active)
H4
  EC50: 13.3 µM (active)

## CCOc1ccc2[nH]c(SCC(=O)OC)c([N+](=O)[O-])c2c1
[3]
  IC50: 41 µM (inactive)
[4]
  IC50: > 66 µM (inactive)

## CCN(CC)S(=O)(=O)c1ccc(-n2cnc3cc(C)c(C)cc32)nc1
Fatty acid synthase [5]
  IC50: 12.8 µM (active)
Fatty acid synthase [6]
  IC50: 11.4 µM (active)

## CCCN1C(=O)/C(=C/c2nc(O)c3ccccc3n2)c2ccccc21
H9c2
  IC50: > 79 µM (inactive)

## Cc1cccc(NC(=O)CNC(=O)COC(=O)c2ccc(C(C)(C)C)cc2)c1C
Fatty acid synthase [5]
  IC50: 20.7 µM (inactive)
Fatty acid synthase [6]
  IC50: 14.6 µM (active)

## CC(OC(=O)Cn1[nH]c(=O)c2ccccc2c1=O)C(=O)NC1(C#N)CCCCC1 (stereo not drawn)
H9c2
  IC50: > 79 µM (inactive)

## O=C(Nc1ccccc1N1CCCC1)c1cc2ccccc2o1
[3]
  IC50: > 66 µM (inactive)
[1]
  EC50: 5.42 µM (active)
[2]
  EC50: 6.1 µM (active)
H4
  EC50: 56.5 µM (active)
[4]
  IC50: > 66 µM (inactive)

## COc1ccc(-c2nnc(SCC(=O)Nc3ncc(C(F)(F)F)cc3Cl)n2CC(C)C)cc1
Fatty acid synthase [5]
  IC50: 3.55 µM (active)
Fatty acid synthase [6]
  IC50: 2.11 µM (active)

## COc1ccccc1NS(=O)(=O)c1cc(NC(=O)Cc2nnc(O)c3ccccc23)ccc1Cl
H9c2
  IC50: 20 µM (active)

## O=C(COc1cccc2c1CCNC2=O)Nc1ccc(F)cc1
H9c2
  IC50: 37.2 µM (inactive)

## O=C(CSc1ncnc2c1cnn2-c1ccccc1)NC1CCS(=O)(=O)C1 (stereo not drawn)
Fatty acid synthase [5]
  IC50: 9.44 µM (active)
Fatty acid synthase [6]
  IC50: 7.65 µM (active)

## COc1cc(-c2cc(NC(C)=O)c3ncc(-c4ccccc4)n3c2)cc(OC)c1OC
H9c2
  IC50: > 79 µM (inactive)

## CN(C)CCCNC(=O)CC1C[C@H](C(=O)N2CCOCC2)[C@@]2(CCC3CCCC3)c3[nH]c4ccccc4c3CCN2C1=O (stereo partly drawn)
Fatty acid synthase [5]
  IC50: 4.82 µM (active)
Fatty acid synthase [6]
  IC50: 2.12 µM (active)

## O=C(CC1C[C@H](C(=O)N2CCOCC2)[C@@]2(CCC3CCCC3)c3[nH]c4ccccc4c3CCN2C1=O)NCc1ccco1 (stereo partly drawn)
Fatty acid synthase [5]
  IC50: 0.778 µM (active)
Fatty acid synthase [6]
  IC50: 1.25 µM (active)

## O=C(NC1CCCCC1)N(c1ccccc1)c1nnc(-c2cccc([N+](=O)[O-])c2)s1
Fatty acid synthase [5]
  IC50: 7.21 µM (active)
Fatty acid synthase [6]
  IC50: 6.12 µM (active)

## Brc1ccc(-c2ccc(/C=N/Nc3nc(N4CCOCC4)nc(N4CCOCC4)n3)o2)cc1
H9c2
  IC50: > 79 µM (inactive)

## CCOc1ccc(N/C(S)=N/CCCn2ccnc2)cc1
[1]
  EC50: > 120 µM (not active)
[2]
  EC50: > 120 µM (not active)
H4
  EC50: > 120 µM (not active)

## COc1ccc(/C=N/Nc2nc(Nc3ccccc3)nc(N3CCCCC3)n2)cc1OC
[1]
  EC50: 8.28 µM (active)
[2]
  EC50: 9.49 µM (active)
Streptokinase A
  EC50: > 150 µM (not active)
[7]
  EC50: 16.1 µM (active)
H4
  EC50: 23.1 µM (active)
Streptococcus
  EC50: 46.3 µM (active)

## C(/C=C/c1ccco1)=N/N1CCN(c2ccccc2)CC1
Cytochrome P450 2C19
  AC50: 2 µM (inconclusive)
Cytochrome P450 1A2
  AC50: 8.91 µM (inconclusive)
[1]
  EC50: 17.5 µM (active)
[2]
  EC50: 2.21 µM (active)
